# PMC9954146, “Anti-Leukaemic Activity of Rilpivirine Is Mediated by Aurora A Kinase Inhibition” (Cancers, 2023)
# What was measured:
# Test in all cases: Kinase panel
# Format in all cases: biochemical
# [1] = molecular target: T1, AAK1(h) (Homo sapiens, UniProt Q2M2I8); details: read-out: % Residual Activity
# T1 construct: purchased Eurofins (KinaseProfiler)
# Outline: (§1)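 Kinome-wide selectivity of rilpivirine was profiled in a commercial kinase panel. Radioisotope-based assays run at each kinase's ATP Km gave IC50 values, which were converted to Ki with the Cheng–Prusoff equation.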
# [2] = molecular target: T2, AMPKα1(h) (Homo sapiens, UniProt Q13131); details: read-out: % Residual Activity
# T2 construct: purchased Eurofins (KinaseProfiler)
# Outline: as §1
# [3] = molecular target: T3, ARK5(h) (Homo sapiens, UniProt O60285); details: read-out: % Residual Activity
# T3 construct: purchased Eurofins (KinaseProfiler)
# Outline: as §1
# [4] = molecular target: T4, Aurora-A(h) (Homo sapiens, UniProt O14965); details: read-out: % Residual Activity
# T4 construct: purchased Eurofins (KinaseProfiler)
# Outline: as §1
# [5] = molecular target: T5, CaMKIIα(h) (Homo sapiens, UniProt Q9UQM7); details: read-out: % Residual Activity
# T5 construct: purchased Eurofins (KinaseProfiler)
# Outline: as §1
# [6] = molecular target: T6, DDR2(h) (Homo sapiens, UniProt Q16832); details: read-out: % Residual Activity
# T6 construct: purchased Eurofins (KinaseProfiler)
# Outline: as §1
# [7] = molecular target: T7, EGFR(L861Q)(h) (Homo sapiens, UniProt P00533, L861Q); details: read-out: % Residual Activity
# T7 construct: purchased Eurofins (KinaseProfiler)
# Outline: as §1
# [8] = molecular target: T8, EphA1(h) (Homo sapiens, UniProt P21709); details: read-out: % Residual Activity
# T8 construct: purchased Eurofins (KinaseProfiler)
# Outline: as §1
# [9] = molecular target: T9, EphA2(h) (Homo sapiens, UniProt P29317); details: read-out: % Residual Activity
# T9 construct: purchased Eurofins (KinaseProfiler)
# Outline: as §1
# [10] = molecular target: T10, EphB4(h) (Homo sapiens, UniProt P54760); details: read-out: % Residual Activity
# T10 construct: purchased Eurofins (KinaseProfiler)
# Outline: as §1
# [11] = molecular target: T11, Fgr(h) (Homo sapiens, UniProt P09769); details: read-out: % Residual Activity
# T11 construct: purchased Eurofins (KinaseProfiler)
# Outline: as §1
# [12] = molecular target: T12, GRK5(h) (Homo sapiens, UniProt P34947); details: read-out: % Residual Activity
# T12 construct: purchased Eurofins (KinaseProfiler)
# Outline: as §1
# [13] = molecular target: T13, GRK6(h) (Homo sapiens, UniProt P43250); details: read-out: % Residual Activity
# T13 construct: purchased Eurofins (KinaseProfiler)
# Outline: as §1
# [14] = molecular target: T14, HRI(h) (Homo sapiens, UniProt Q9BQI3); details: read-out: % Residual Activity
# T14 construct: purchased Eurofins (KinaseProfiler)
# Outline: as §1
# [15] = molecular target: T15, ICK(h) (Homo sapiens, UniProt Q9UPZ9); details: read-out: % Residual Activity
# T15 construct: purchased Eurofins (KinaseProfiler)
# Outline: as §1
# [16] = molecular target: T16, IKKβ(h) (Homo sapiens, UniProt O14920); details: read-out: % Residual Activity
# T16 construct: purchased Eurofins (KinaseProfiler)
# Outline: as §1
# [17] = molecular target: T17, Lck(h) (Homo sapiens, UniProt P06239); details: read-out: % Residual Activity
# T17 construct: purchased Eurofins (KinaseProfiler)
# Outline: as §1
# [18] = molecular target: T18, Lck(h) activated (Homo sapiens, UniProt P06239); details: read-out: % Residual Activity
# T18 construct: purchased Eurofins (KinaseProfiler)
# Outline: as §1
# [19] = molecular target: T19, Lyn(h) (Homo sapiens, UniProt P07948)
# T19 construct: purchased Eurofins (KinaseProfiler)
# Outline: as §1
# [20] = molecular target: T20, MAPK2(m) (Mus musculus, UniProt P63085); details: read-out: % Residual Activity
# T20 construct: purchased Eurofins (KinaseProfiler)
# Outline: as §1
# [21] = molecular target: T21, MRCKγ(h) (Homo sapiens, UniProt Q6DT37); details: read-out: % Residual Activity
# T21 construct: purchased Eurofins (KinaseProfiler)
# Outline: as §1
# [22] = molecular target: T22, MST2(h) (Homo sapiens, UniProt Q13188); details: read-out: % Residual Activity
# T22 construct: purchased Eurofins (KinaseProfiler)
# Outline: as §1
# [23] = molecular target: T23, PAK2(h) (Homo sapiens, UniProt Q13177); details: read-out: % Residual Activity
# T23 construct: purchased Eurofins (KinaseProfiler)
# Outline: as §1
# [24] = molecular target: T24, PAK6(h) (Homo sapiens, UniProt Q9NQU5); details: read-out: % Residual Activity
# T24 construct: purchased Eurofins (KinaseProfiler)
# Outline: as §1
# [25] = molecular target: T25, PI3 Kinase (p110a/p65a)(m) (Mus musculus, UniProt P42337); details: read-out: % Residual Activity
# T25 construct: purchased Eurofins (KinaseProfiler)
# Outline: as §1
# [26] = molecular target: PIP5K1g(h) (Homo sapiens, UniProt O60331); details: read-out: % Residual Activity
# Outline: as §1
# [27] = molecular target: T26, PKA(h) (Homo sapiens, UniProt P17612); details: read-out: % Residual Activity
# T26 construct: purchased Eurofins (KinaseProfiler)
# Outline: as §1
# [28] = molecular target: T27, PKCε(h) (Homo sapiens, UniProt Q02156); details: read-out: % Residual Activity
# T27 construct: purchased Eurofins (KinaseProfiler)
# Outline: as §1
# [29] = molecular target: T28, PKCζ(h) (Homo sapiens, UniProt Q05513); details: read-out: % Residual Activity
# T28 construct: purchased Eurofins (KinaseProfiler)
# Outline: as §1
# [30] = molecular target: T29, PKD3(h) (Homo sapiens, UniProt O94806); details: read-out: % Residual Activity
# T29 construct: purchased Eurofins (KinaseProfiler)
# Outline: as §1
# [31] = molecular target: T30, PKR(h) (Homo sapiens, UniProt P19525); details: read-out: % Residual Activity
# T30 construct: purchased Eurofins (KinaseProfiler)
# Outline: as §1
# [32] = molecular target: T31, PhKγ1(h) (Homo sapiens, UniProt Q16816); details: read-out: % Residual Activity
# T31 construct: purchased Eurofins (KinaseProfiler)
# Outline: as §1
# [33] = molecular target: T32, Plk3(h) (Homo sapiens, UniProt Q9H4B4); details: read-out: % Residual Activity
# T32 construct: purchased Eurofins (KinaseProfiler)
# Outline: as §1
# [34] = molecular target: T33, ROCK-II(r) (Rattus norvegicus, UniProt Q62868); details: read-out: % Residual Activity
# T33 construct: purchased Eurofins (KinaseProfiler)
# Outline: as §1
# [35] = molecular target: T34, Ret(h) (Homo sapiens, UniProt P07949); details: read-out: % Residual Activity
# T34 construct: purchased Eurofins (KinaseProfiler)
# Outline: as §1
# [36] = molecular target: T35, SBK1(h) (Homo sapiens, UniProt Q52WX2); details: read-out: % Residual Activity
# T35 construct: purchased Eurofins (KinaseProfiler)
# Outline: as §1
# [37] = molecular target: T36, SIK2(h) (Homo sapiens, UniProt Q9H0K1); details: read-out: % Residual Activity
# T36 construct: purchased Eurofins (KinaseProfiler)
# Outline: as §1
# [38] = molecular target: T37, TSSK4(h) (Homo sapiens, UniProt Q6SA08); details: read-out: % Residual Activity
# T37 construct: purchased Eurofins (KinaseProfiler)
# Outline: as §1
# [39] = molecular target: T38, VRK2(h) (Homo sapiens, UniProt Q86Y07); details: read-out: % Residual Activity
# T38 construct: purchased Eurofins (KinaseProfiler)
# Outline: as §1
# T19 sequence (P07948 whole entry): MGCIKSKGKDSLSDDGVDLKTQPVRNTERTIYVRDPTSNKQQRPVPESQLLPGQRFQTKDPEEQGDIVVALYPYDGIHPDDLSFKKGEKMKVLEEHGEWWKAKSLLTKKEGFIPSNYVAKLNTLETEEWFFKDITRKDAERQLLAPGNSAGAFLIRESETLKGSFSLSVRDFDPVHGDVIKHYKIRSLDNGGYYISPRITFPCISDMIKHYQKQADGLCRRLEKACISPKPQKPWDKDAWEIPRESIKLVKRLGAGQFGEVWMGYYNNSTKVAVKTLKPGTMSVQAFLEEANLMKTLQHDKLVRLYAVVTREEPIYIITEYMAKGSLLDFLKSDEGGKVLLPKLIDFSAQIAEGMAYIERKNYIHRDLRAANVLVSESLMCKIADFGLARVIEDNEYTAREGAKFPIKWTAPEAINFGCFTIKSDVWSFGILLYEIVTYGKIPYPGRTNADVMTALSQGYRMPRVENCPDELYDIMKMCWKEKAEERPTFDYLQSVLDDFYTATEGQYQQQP
# T22 sequence (Q13188 whole entry): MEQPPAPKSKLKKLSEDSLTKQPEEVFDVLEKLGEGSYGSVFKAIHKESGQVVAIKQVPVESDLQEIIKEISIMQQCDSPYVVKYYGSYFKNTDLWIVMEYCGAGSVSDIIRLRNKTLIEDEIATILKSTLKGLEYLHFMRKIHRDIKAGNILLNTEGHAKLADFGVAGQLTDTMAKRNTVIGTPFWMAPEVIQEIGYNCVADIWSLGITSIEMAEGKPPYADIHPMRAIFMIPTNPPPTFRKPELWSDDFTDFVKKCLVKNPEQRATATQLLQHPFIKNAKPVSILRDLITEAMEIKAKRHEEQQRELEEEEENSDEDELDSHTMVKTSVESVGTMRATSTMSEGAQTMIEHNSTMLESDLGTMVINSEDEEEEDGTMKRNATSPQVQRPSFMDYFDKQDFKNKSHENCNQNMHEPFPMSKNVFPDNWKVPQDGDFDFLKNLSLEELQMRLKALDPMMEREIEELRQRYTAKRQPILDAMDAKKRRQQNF
# T25 sequence (P42337 whole entry): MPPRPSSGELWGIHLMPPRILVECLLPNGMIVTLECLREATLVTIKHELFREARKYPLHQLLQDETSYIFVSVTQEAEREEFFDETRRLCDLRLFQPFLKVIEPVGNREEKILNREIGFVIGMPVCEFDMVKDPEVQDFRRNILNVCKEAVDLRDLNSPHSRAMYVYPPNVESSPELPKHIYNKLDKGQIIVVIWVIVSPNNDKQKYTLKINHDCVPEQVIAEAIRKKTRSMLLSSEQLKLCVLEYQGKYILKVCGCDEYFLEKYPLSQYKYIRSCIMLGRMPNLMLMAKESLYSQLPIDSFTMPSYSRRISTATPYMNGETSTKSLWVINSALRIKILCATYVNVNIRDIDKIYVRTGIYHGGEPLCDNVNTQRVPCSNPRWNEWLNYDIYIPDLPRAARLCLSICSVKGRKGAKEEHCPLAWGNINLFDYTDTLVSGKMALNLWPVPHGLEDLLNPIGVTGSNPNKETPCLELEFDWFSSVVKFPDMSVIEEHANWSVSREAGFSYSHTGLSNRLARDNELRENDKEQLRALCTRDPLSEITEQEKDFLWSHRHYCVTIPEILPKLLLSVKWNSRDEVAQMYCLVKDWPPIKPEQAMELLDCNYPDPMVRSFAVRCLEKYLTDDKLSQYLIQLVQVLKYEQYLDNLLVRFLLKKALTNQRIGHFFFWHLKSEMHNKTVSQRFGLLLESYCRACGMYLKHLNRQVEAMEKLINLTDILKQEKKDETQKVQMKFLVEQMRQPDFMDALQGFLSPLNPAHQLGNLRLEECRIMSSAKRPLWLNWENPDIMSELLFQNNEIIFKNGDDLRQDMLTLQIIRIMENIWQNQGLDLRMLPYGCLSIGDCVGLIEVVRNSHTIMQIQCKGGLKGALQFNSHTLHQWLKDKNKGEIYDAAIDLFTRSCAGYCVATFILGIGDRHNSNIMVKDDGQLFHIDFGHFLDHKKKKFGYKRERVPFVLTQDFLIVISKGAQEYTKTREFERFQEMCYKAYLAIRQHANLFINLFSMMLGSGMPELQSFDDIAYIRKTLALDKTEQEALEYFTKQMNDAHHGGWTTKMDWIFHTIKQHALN
# T25 sequence (P26450 1-571 partner limits assumed): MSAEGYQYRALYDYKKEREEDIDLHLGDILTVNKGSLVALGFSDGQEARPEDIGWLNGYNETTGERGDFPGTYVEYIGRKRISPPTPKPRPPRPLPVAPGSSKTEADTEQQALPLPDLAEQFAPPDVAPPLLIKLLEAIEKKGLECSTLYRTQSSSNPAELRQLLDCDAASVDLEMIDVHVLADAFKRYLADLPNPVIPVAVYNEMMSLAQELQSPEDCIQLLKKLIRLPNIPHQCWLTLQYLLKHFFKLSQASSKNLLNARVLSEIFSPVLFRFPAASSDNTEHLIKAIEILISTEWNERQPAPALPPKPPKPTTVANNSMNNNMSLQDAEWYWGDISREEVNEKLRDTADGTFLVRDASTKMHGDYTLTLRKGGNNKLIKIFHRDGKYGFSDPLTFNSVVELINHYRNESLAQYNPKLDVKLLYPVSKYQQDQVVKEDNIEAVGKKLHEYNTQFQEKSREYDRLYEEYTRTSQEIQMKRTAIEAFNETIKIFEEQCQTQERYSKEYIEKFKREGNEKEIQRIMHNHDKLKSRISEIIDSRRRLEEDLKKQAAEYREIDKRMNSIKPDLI
# T6 sequence (Q16832 22-855): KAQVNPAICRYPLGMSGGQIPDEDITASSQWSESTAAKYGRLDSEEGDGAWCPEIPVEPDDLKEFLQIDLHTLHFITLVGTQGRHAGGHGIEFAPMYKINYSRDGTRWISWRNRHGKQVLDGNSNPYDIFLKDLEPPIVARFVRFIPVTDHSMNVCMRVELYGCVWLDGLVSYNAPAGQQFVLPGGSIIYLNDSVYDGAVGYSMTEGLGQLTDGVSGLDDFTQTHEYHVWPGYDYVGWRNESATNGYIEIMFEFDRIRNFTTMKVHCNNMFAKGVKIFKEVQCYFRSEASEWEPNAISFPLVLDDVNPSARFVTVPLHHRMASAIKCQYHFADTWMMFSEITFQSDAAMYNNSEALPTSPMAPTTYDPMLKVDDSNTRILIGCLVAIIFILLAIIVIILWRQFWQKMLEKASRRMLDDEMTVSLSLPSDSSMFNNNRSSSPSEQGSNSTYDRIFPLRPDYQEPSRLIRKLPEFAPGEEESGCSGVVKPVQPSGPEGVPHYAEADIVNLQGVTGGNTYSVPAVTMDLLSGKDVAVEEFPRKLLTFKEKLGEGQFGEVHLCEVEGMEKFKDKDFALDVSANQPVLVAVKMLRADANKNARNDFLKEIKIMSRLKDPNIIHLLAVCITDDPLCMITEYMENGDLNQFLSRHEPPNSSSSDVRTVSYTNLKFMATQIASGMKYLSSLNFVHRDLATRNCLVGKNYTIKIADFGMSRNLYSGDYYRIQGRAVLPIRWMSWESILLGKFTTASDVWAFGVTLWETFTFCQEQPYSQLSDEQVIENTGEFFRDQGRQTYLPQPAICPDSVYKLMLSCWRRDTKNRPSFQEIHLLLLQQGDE
# T20 sequence (P63085 2-358 limits assumed): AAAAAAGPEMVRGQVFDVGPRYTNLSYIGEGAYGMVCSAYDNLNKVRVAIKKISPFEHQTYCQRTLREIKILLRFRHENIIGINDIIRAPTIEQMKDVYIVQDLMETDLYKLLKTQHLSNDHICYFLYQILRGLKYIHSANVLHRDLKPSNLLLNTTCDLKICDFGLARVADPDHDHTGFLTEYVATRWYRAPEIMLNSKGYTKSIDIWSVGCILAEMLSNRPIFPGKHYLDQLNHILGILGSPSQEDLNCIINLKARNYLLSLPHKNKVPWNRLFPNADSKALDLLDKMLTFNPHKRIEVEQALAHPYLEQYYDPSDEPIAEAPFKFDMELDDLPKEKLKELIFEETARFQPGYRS
# T5 sequence (Q9UQM7 whole entry): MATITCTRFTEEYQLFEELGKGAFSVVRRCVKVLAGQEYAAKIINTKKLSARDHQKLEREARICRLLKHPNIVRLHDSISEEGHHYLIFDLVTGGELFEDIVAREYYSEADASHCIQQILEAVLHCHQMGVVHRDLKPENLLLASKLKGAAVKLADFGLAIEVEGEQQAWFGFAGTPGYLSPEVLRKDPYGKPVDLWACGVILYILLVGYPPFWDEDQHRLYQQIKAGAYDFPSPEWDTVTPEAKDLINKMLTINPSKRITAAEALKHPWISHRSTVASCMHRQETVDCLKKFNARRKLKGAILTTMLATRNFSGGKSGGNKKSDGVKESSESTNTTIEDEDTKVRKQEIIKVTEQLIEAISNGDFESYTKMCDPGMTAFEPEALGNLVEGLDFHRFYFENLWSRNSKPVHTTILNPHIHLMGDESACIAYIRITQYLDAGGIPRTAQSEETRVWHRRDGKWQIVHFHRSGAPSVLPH
# T24 sequence (Q9NQU5 whole entry): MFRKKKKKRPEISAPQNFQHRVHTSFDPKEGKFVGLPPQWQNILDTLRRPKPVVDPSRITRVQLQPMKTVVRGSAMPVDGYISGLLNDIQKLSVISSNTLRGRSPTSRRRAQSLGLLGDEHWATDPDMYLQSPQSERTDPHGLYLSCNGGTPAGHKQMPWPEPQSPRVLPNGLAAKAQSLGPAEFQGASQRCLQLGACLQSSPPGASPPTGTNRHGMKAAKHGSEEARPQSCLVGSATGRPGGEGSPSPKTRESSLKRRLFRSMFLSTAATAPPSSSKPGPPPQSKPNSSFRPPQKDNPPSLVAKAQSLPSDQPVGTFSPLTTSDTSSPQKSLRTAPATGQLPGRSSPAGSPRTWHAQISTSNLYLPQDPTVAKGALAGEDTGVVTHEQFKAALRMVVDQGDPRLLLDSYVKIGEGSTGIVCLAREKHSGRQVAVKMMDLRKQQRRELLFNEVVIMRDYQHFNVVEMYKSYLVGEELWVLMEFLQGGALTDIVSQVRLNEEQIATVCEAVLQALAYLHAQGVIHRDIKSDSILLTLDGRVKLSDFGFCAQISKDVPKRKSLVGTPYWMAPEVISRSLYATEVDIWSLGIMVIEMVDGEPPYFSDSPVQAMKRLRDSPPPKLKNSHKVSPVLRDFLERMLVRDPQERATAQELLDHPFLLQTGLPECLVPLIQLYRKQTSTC
structure (smiles),measurement,setting,value
"Cc1cc(/C=C/C#N)cc(C)c1Nc1ccnc(Nc2ccc(C#N)cc2)n1 [rilpivirine, (E)-4-((4-((4-(2-cyanoethenyl)-2,6-dimethylphenyl)amino)pyrimidin-2-yl)amino)benzonitrile]",remaining activity at 1 µM,[1],87%
same,remaining activity at 1 µM,[2],44%
same,remaining activity at 1 µM,[3],82%
same,remaining activity at 1 µM,[4],14%
same,remaining activity at 1 µM,[5],61%
same,remaining activity at 1 µM,[6],82%
same,remaining activity at 1 µM,[7],35%
same,remaining activity at 1 µM,[8],56%
same,remaining activity at 1 µM,[9],72%
same,remaining activity at 1 µM,[10],86%
same,remaining activity at 1 µM,[11],37%
same,remaining activity at 1 µM,[12],96%
same,remaining activity at 1 µM,[13],97%
same,remaining activity at 1 µM,[14],91%
same,remaining activity at 1 µM,[15],99%
same,remaining activity at 1 µM,[16],95%
same,remaining activity at 1 µM,[17],33%
same,remaining activity at 1 µM,[18],54%
same,inhibition at 1 µM,"[19]; LYN, read-out: inhibitory activity",> 70%
same,remaining activity at 1 µM,[19]; read-out: % Residual Activity,23%
same,remaining activity at 1 µM,[20],92%
same,remaining activity at 1 µM,[21],90%
same,remaining activity at 1 µM,[22],80%
same,remaining activity at 1 µM,[23],89%
same,remaining activity at 1 µM,[24],117%
same,remaining activity at 1 µM,[25],104%
same,remaining activity at 1 µM,[26],76%
same,remaining activity at 1 µM,[27],93%
same,remaining activity at 1 µM,[28],89%
same,remaining activity at 1 µM,[29],80%
same,remaining activity at 1 µM,[30],76%
same,remaining activity at 1 µM,[31],92%
same,remaining activity at 1 µM,[32],80%
same,remaining activity at 1 µM,[33],99%
same,remaining activity at 1 µM,[34],94%
same,remaining activity at 1 µM,[35],108%
same,remaining activity at 1 µM,[36],100%
same,remaining activity at 1 µM,[37],57%
same,remaining activity at 1 µM,[38],127%
same,remaining activity at 1 µM,[39],88%
